Experimental data published in patent US11998016B2, “Use of Chaetomium globosum strain in controlling fusarium crown rot of wheat” (priority 2020, dated 2024).

Tested on: Fusarium crown rot (FCR) of wheat, Fusarium pseudograminearum G14LY24-2
Assay: Field effect of seed coating on controlling FCR of wheat (inoculated field disease nurseries)
Format: in vivo
Details: for Average disease rating: grading 0-5
Experimental: Wheat grains are soaked for 12 h, sterilized for 60 min, allowed to stand for two days, sterilized for 30-60 min, and cooled for later use. Fusarium pseudograminearum G14LY24-2 was selected on a PDA plate. After growing for three days, marginal hyphae were picked to grow on a fresh PDA plate. After three days, the hyphal pellets were plated into a wheat grain polyethylene bag with sterilized wheat grains. The hyphal pellets grew at room temperature for two weeks until the fungi grew all over wheat grains, and stored in a refrigerator at 4° C. after air-drying.
Disease nurseries were constructed in a 1:1 ratio of seed quantity to inoculum volume ratio. The inoculation was located 3-5 cm above the seed. The seeds to be sown and the inoculum were mixed first, and after mixing well, well-mixed sowing materials were sown by a planter.
Selected C. globosum strains were activated on a fresh PDA, and hyphal pellets were picked into 9 cm PDA Petri dishes. After 15 days, perithecia were ground in sterile water using a spreading rod, and ascospore suspension was controlled at about 100 mL, with a concentration of 1.0-2.0×10^7 ascospores/mL; in case of a low concentration, the suspension was centrifuged at 3,000 rpm for 5 min, dewatered, and resuspended. 75 mL of fungal suspension (approximately 1.3×10^7 ascospores/mL) was mixed with 25 mL of 4 wt % carboxymethyl cellulose salt solution into 100 mL of fungal suspension with 1% carboxymethyl cellulose salt (approximately 1.0×10^7 ascospores/mL). 100 mL of 1×10^7 ascospores/mL fungal suspension with 1% carboxymethyl cellulose salt was mixed well with 5 kg of wheat seeds. Chaetomium globosum strain 12XP1-2-3-coated seeds were rinsed and spread on a plate to count spores on the seed surface, which was 5.0-5.3×10^4 ascospores per seed. The wheat cultivar in 2018 was “Bainong 207”, the wheat cultivar in 2019 was “Aikang 58”, the control agent was 30 g/L difenoconazole, and the seeds were dressed in an agent-to-seed ratio of 1:333.
Field sampling method: At the seedling stage, the emergence rate was investigated, and the plant height, tap root length, fresh weight, dry weight, and colonization ability of C. globosum were measured; at the tillering stage, the morbidity was investigated, and the plant height, tap root length, fresh weight, dry weight, tiller number, and colonization ability of C. globosum were measured; the morbidity was investigated at the jointing stage; the white ear rate was investigated at the filling stage. The method was to investigate the number of white heads and total number of ears per 1 m2 plot and calculate the white ear rate of the plot. The diseased stem rate was investigated at the maturing stage; 20 stems were sampled at five points in each plot, a total of 100 stems for each treatment were brought back to the laboratory, and leaf sheaths were removed thoroughly to determine the disease rating.
The grading standard for adult stage was as follows: 0=no disease; 1=browning in the first node; 2=browning in the second node; 3=browning in the third node; 4=browning in the peduncle or white ears at the filling stage; and 5=diseased plant without ear bearing. The yield was determined during harvest.

[1] = “Aikang 58” in Wenxian in 2019, wheat filling stage
[2] = “Bainong 207” in Kaifeng in 2018, wheat filling stage

## CC1COC(Cn2cncn2)(c2ccc(Oc3ccc(Cl)cc3)cc2Cl)O1 (stereo not drawn) [Difenoconazole, difenoconazole]
[1]
  Disease index: 9.4
  Diseased stem rate %: 26.0%
  Average disease rating: 0.5
[2]
  Disease index: 12.9
  Diseased stem rate %: 30.0%
  Average disease rating: 0.6
